From ChEMBL document CHEMBL1136449, “A new class of glycogen phosphorylase inhibitors” (Bioorg Med Chem Lett, 2003) come the findings set out here.

Data set [1] deals with T1, Glycogen phosphorylase, muscle form (Homo sapiens, UniProt P11217).
T1 sequence (P11217 whole entry): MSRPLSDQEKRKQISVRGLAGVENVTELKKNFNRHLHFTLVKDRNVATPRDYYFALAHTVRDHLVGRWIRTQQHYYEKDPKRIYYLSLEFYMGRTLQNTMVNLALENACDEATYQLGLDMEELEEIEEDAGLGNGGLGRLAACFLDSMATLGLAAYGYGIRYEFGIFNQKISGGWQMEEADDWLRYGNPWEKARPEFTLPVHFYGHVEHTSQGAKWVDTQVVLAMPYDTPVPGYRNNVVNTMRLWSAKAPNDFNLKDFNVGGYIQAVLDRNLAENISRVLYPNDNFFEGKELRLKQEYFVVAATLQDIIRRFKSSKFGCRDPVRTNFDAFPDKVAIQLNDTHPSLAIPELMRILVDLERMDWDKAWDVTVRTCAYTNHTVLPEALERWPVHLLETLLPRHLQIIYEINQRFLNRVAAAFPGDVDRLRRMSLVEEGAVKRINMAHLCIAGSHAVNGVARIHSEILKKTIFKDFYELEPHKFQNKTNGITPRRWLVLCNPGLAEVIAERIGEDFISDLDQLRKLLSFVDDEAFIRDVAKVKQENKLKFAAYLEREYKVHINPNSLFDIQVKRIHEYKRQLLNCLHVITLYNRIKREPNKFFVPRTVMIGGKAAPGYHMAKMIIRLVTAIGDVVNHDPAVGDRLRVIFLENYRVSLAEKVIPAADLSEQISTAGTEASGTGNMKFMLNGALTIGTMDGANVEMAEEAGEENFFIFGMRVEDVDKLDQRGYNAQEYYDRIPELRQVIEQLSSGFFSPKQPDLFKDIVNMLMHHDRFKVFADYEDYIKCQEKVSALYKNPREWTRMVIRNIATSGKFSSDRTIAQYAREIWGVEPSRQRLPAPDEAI
The data set can be described thus: Inhibitory activity against HMGP(human muscle glycogen phosphorylase).

Data set [2] addresses T2, Glycogen phosphorylase, liver form (Homo sapiens, UniProt P06737).
T2 sequence (P06737 whole entry): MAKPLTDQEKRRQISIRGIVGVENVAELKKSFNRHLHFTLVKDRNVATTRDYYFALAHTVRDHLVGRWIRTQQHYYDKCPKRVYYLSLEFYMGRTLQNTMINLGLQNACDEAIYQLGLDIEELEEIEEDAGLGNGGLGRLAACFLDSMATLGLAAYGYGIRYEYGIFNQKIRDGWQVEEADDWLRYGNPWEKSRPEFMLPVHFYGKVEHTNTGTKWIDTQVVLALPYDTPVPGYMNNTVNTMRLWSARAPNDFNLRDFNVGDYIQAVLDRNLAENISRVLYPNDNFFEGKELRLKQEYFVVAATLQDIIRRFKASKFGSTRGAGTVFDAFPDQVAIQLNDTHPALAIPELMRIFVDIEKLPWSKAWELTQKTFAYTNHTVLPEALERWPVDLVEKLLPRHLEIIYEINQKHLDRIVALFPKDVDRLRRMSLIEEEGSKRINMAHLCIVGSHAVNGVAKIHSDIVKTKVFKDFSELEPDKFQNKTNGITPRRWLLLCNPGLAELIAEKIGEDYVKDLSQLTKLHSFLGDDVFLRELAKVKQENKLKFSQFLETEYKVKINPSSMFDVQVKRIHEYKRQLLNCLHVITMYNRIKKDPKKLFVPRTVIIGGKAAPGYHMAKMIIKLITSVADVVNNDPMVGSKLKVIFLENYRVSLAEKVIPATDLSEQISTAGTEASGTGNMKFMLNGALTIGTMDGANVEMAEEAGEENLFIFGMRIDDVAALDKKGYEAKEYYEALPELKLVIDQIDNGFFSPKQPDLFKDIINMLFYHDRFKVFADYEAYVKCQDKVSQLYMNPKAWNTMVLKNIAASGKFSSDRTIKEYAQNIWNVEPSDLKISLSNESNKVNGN
Briefly: Inhibitory activity against HLGP(human liver glycogen phosphorylase).

Data set [3] concerns the target T3, Glycogen phosphorylase, liver form (Mus musculus, UniProt Q9ET01).
T3 sequence (Q9ET01 whole entry): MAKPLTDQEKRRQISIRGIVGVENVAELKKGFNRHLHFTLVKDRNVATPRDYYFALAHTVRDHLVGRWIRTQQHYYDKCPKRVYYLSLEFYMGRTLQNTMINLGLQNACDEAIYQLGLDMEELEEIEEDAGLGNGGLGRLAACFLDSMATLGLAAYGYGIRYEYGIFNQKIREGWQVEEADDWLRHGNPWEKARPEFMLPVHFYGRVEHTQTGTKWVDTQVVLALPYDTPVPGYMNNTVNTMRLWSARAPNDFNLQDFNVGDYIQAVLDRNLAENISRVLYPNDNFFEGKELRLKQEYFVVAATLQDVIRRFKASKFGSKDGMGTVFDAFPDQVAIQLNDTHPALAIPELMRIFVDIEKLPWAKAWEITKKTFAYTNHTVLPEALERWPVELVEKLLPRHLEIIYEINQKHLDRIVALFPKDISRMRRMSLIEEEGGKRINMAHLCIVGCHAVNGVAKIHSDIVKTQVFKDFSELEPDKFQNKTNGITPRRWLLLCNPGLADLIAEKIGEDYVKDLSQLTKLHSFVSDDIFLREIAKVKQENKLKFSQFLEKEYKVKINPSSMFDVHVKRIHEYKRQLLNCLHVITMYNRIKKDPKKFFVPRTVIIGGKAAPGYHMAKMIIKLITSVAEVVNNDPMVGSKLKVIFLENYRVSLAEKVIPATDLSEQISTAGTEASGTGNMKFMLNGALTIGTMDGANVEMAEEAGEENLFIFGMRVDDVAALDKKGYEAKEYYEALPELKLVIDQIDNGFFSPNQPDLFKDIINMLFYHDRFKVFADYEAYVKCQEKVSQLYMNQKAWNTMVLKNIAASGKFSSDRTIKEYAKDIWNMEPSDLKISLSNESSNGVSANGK
Briefly: Inhibitory activity against mouse liver glycogen phosphorylase.

Data set [4] has as its target T4, Glycogen phosphorylase, liver form (Rattus norvegicus, UniProt P09811).
T4 sequence (P09811 whole entry): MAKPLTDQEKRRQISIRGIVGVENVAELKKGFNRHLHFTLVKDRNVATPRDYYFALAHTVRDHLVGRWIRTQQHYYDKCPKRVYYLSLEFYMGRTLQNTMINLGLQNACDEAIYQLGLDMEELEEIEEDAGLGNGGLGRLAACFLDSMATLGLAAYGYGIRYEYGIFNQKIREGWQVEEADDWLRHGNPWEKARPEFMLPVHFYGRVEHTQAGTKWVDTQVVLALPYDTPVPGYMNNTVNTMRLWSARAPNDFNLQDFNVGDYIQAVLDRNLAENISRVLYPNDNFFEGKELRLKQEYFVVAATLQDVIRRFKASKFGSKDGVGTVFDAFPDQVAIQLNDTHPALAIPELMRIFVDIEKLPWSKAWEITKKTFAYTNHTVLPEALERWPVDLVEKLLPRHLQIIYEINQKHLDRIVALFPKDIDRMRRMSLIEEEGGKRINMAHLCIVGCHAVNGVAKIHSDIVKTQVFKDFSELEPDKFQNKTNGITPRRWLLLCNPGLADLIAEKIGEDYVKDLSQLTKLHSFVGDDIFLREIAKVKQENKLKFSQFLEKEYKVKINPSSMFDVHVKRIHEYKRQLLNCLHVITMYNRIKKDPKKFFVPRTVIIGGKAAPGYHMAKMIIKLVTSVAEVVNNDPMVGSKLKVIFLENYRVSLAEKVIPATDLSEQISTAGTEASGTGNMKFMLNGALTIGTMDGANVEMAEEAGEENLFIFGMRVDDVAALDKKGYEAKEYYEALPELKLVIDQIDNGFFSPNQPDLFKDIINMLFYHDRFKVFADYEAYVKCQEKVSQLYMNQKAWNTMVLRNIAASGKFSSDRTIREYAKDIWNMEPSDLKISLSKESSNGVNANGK
The data set can be described thus: Inhibitory activity against rat liver glycogen phosphorylase.

The nature of data set [5]: Half-life in male mice after 1 mg/kg intravenous dose. The class given is ADME, organism-based. On the set-up: dose 1 mg/kg, route intravenous. As to conditions: mouse, in vivo.
Data set [6] in a line: Cmax in male mice after 2 mg/kg oral dose. On the set-up: dose 2 mg/kg, route oral. In kind it is ADME, organism-based. As to conditions: mouse, in vivo.
Data set [7] in a line: Bioavailability in male mice, 2mg/kg oral and 1 mg/kg intravenous dose. In kind it is ADME, organism-based. As to conditions: mouse, in vivo.

For `Cc1ccnc(C(=O)Nc2cc3ccccc3cc2Oc2ccc(C(=O)O)c(C(=O)O)c2)c1`, the IC50 in data set [1] was determined as 57 nM; in data set [2], 10 nM.

Take `COc1ccnc(C(=O)Nc2ccccc2Oc2ccc(C(=O)O)c(C(=O)O)c2)c1`: the IC50 was 200 nM in data set [1], 18 nM in data set [3], 24 nM in data set [4] and 20 nM in data set [2].

Turning to `CCc1ccnc(C(=O)Nc2cc3ccccc3cc2Oc2ccc(C(=O)O)c(C(=O)O)c2)c1`, the IC50 in data set [1] was 29 nM; in data set [2], 4 nM.

On to `O=C(Nc1cc2ccccc2cc1Oc1ccc(C(=O)O)c(C(=O)O)c1)c1cc(Cl)ccn1`, for which the values for the IC50 in data set [1] and in data set [2] were 12 nM and 2 nM, respectively.

For the molecule `O=C(Nc1cc(F)ccc1Oc1ccc(C(=O)O)c(C(=O)O)c1)c1cc(Cl)ccn1`, the IC50 in data set [1] amounted to 647 nM; in data set [2], 78 nM.

Consider `O=C(Nc1cc2ccccc2cc1Oc1ccc(C(=O)O)c(C(=O)O)c1)c1cc([N+](=O)[O-])ccn1`, for which the half-maximal inhibitory concentration (IC50) in data set [1] stood at 3 nM; in data set [2], 1 nM.

For `O=C(Nc1c(F)cccc1Oc1ccc(C(=O)O)c(C(=O)O)c1)c1cc([N+](=O)[O-])ccn1`, the IC50 was 9 nM in data set [1] and 1 nM in data set [2].

Take `COc1ccnc(C(=O)Nc2c(F)cccc2Oc2ccc(C(=O)O)c(C(=O)O)c2)c1`: the IC50 amounted to 110 nM in data set [1] and 11 nM in data set [2].

As to `O=C(Nc1cc2ccccc2cc1Oc1ccc(C(=O)O)c(C(=O)O)c1)c1ccccc1`, the IC50 in data set [1] came out at 12300 nM; in data set [2] it was 2880 nM.

Regarding `O=C(Nc1cc2ccccc2cc1Oc1ccc(C(=O)O)c(C(=O)O)c1)c1cccc([N+](=O)[O-])c1`, the IC50 stood at 140 nM in data set [1] and 23 nM in data set [2].

Take `O=C(Nc1c(F)cccc1Oc1ccc(C(=O)O)c(C(=O)O)c1)c1cccc([N+](=O)[O-])c1`: the IC50 was determined as 1860 nM in data set [1], 207 nM in data set [3], 302 nM in data set [4] and 250 nM in data set [2].

For the molecule `O=C(Nc1ccccc1Oc1ccc(C(=O)O)c(C(=O)O)c1)c1cc([N+](=O)[O-])ccn1`, the IC50 in data set [1] is 25 nM; in data set [2] it was 3 nM.

Take `O=C(Nc1cc2ccccc2cc1Oc1ccc(C(=O)O)c(C(=O)O)c1)c1cc(C(F)(F)F)ccn1`: the IC50 was determined as 80 nM in data set [1] and 12 nM in data set [2].

Consider `O=C(Nc1ccccc1Oc1ccc(C(=O)O)c(C(=O)O)c1)c1cc(I)ccn1`, for which the IC50 was found to be 468 nM in data set [1] and 39 nM in data set [2].

In the case of `N#Cc1ccnc(C(=O)Nc2ccccc2Oc2ccc(C(=O)O)c(C(=O)O)c2)c1`, the IC50 in data set [1] is 167 nM; in data set [3], 14 nM; in data set [4] it was 19 nM; in data set [2], 16 nM.

As to `COc1ccnc(C(=O)Nc2cc3ccccc3cc2Oc2ccc(C(=O)O)c(C(=O)O)c2)c1`, the IC50 in data set [1] came to 12 nM; in data set [2], 2 nM.

`O=C(Nc1cc(F)ccc1Oc1ccc(C(=O)O)c(C(=O)O)c1)c1cc([N+](=O)[O-])ccn1`: the IC50 is 109 nM in data set [1] and 13 nM in data set [2].

As for `O=C(Nc1c(F)cccc1Oc1ccc(C(=O)O)c(C(=O)O)c1)c1cc(Cl)ccn1`, the IC50 in data set [1] is 60 nM; in data set [3], less than 9 nM; in data set [4] it was less than 9 nM; in data set [2], 10 nM. The half-life in data set [5] turned out to be 1 h. In addition, the concentration in data set [6] peaked (Cmax) at 44 nM. Besides, the bioavailability in data set [7] worked out at 4.1%.

For the molecule `O=C(Nc1ccccc1Oc1ccc(C(=O)O)c(C(=O)O)c1)c1cc(Cl)ccn1`, the IC50 in data set [1] turned out to be 181 nM; in data set [3], 14 nM; in data set [4], 16 nM; in data set [2] it was 17 nM.

Regarding `O=C(Nc1cc2ccccc2cc1Oc1ccc(C(=O)O)c(C(=O)O)c1)c1ccccn1`, the IC50 in data set [1] turned out to be 844 nM; in data set [2] it was 167 nM.
